Where two headings read alike, the source gives them in different places.
What was measured:
[1] = test system: U2OS/PD-L1 cells and Jurkat-PD-1-SHP cells; test: Src homology region 2 domain-containing phosphatase (SHP) assay; assay type: cell-based
Procedure, shortened: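 U2OS/PD-L1 and Jurkat-PD-1-SHP cells (5000 each per well) were co-incubated with compound for 2 h at 37 °C in RPMI1640 with 1% FBS, 0.05% DMSO final. PathHunter chemiluminescence was read after 1 h at room temperature, and IC50 was fitted from percent of DMSO-control activity.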

PD-L1 = PD-L1 (Homo sapiens (Human), UniProt Q9NZQ7); test: PD-L1 whole blood internalization assay; assay type: cell-based; settings: 24 HR, PD-L1 expression on CD14+ cells, human interferon γ
Chain of PD-L1 (Q9NZQ7 19-290): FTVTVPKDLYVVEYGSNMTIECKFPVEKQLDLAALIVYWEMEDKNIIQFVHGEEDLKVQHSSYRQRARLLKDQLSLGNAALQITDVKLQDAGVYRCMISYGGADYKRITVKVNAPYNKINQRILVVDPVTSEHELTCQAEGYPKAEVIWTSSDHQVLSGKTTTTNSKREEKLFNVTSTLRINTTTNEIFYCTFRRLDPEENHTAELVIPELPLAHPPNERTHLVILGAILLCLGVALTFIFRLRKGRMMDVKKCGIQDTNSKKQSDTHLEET

[2] = test system: PD-L1 aAPC/CHO-K1 cells and Jurkat-PD-1-NFAT effector cells; test: Nuclear factor of activated T-cells (NFAT) assay; assay type: cell-based
Procedure, shortened: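 CHO-K1 cells expressing PD-L1 aAPC were co-cultured with Jurkat-PD-1-NFAT effector cells in RPMI 1640 with 1% FBS and compound (0.4% DMSO; top concentration 2 μM) for 24 h at 37 °C. Bio-Glo luminescence was read, fold induction normalised to DMSO wells, and EC50 fitted from percent of control compound activity.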

[3] = biological target: PD-1/PD-L1 protein/protein interaction (recombinant human PD-L1 and human PD-1) (Homo sapiens (Human), UniProt Q9NZQ7); test: Homogeneous Time-Resolved Fluorescence (HTRF) PD-1/PD-L1 binding assay
Chain of PD-1/PD-L1 protein/protein interaction (recombinant human PD-L1 and human PD-1) (Q9NZQ7 19-238): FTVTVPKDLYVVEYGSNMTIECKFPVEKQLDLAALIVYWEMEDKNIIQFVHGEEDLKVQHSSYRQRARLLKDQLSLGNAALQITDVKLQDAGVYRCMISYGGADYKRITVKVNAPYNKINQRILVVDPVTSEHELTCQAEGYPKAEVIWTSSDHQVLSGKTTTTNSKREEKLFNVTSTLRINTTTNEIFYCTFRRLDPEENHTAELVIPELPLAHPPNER
Procedure, shortened: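 Human PD-L1 (19-238, C-His; 10 nM final) and PD-1 (25-167, C-Fc; 3 nM final) preincubated 40 min with inhibitor in PBS pH 7.4, 0.05% Tween-20, 0.1% BSA, 1% DMSO, 25 °C. Eu-anti-human IgG (1 nM) and anti-His-APC (20 nM) added for 60 min; 665/620 nm ratio; IC50 from percent-control curves.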

SMILES: Cn1c(C(=O)Nc2cccc(-c3cccc(NC(=O)c4nc5c(n4C)CCN(C4CCN(S(N)(=O)=O)CC4)C5)c3Cl)c2Cl)nc2c1CCN(CCC13CCC(C(=O)O)(CC1)C3)C2 [Example 8, 4-(2-(2-((2,2′-dichloro-3′-(1-methyl-5-(1-sulfamoylpiperidin-4-yl)-4,5,6,7-tetrahydro-1H-imidazo[4,5-c]pyridine-2-carboxamido)-[1,1′-biphenyl]-3-yl)carbamoyl)-1-methyl-1,4,6,7-tetrahydro-5H-imidazo[4,5-c]pyridin-5-yl)ethyl)bicyclo[2.2.1]heptane-1-carboxylic acid]
- IC50 ([1]; Homo sapiens, U2OS): ≤ 10 nM
- IC50 (PD-L1): 100 to 500 nM
- EC50 ([2]; Cricetulus griseus, CHO-K1): 10 to 100 nM
- IC50 [3]: ≤ 5 nM

SMILES: Cc1c(NC(=O)c2nc3c(n2C)CCN(CCC24CCC(C(=O)O)(CC2)C4)C3)cccc1-c1cccc(NC(=O)c2nc3c(n2C)CCN(CCO)C3)c1Cl [Example 43, 4-(2-(2-((2′-chloro-3′-(5-(2-hydroxyethyl)-1-methyl-4,5,6,7-tetrahydro-1H-imidazo[4,5-c]pyridine-2-carboxamido)-2-methyl-[1,1′-biphenyl]-3-yl)carbamoyl)-1-methyl-1,4,6,7-tetrahydro-5H-imidazo[4,5-c]pyridin-5-yl)ethyl)bicyclo[2.2.1]heptane-1-carboxylic acid]
- IC50 ([1]; Homo sapiens, U2OS): ≤ 10 nM
- IC50 (PD-L1): 10 to 100 nM
- EC50 ([2]; Cricetulus griseus, CHO-K1): 10 to 100 nM
- IC50 [3]: ≤ 5 nM

SMILES: Cc1c(NC(=O)c2nc3c(n2C)CCN(CCC24CCC(C(=O)O)(CC2)C4)C3)cccc1-c1cccc(NC(=O)c2nc3c(n2C)CCN(C2CCOCC2)C3)c1C [Example 56, 4-(2-(2-((2,2′-dimethyl-3′-(1-methyl-5-(tetrahydro-2H-pyran-4-yl)-4,5,6,7-tetrahydro-1H-imidazo[4,5-c]pyridine-2-carboxamido)-[1,1′-biphenyl]-3-yl)carbamoyl)-1-methyl-1,4,6,7-tetrahydro-5H-imidazo[4,5-c]pyridin-5-yl)ethyl)bicyclo[2.2.1]heptane-1-carboxylic acid]
- IC50 ([1]; Homo sapiens, U2OS): ≤ 10 nM
- IC50 (PD-L1): 100 to 500 nM
- EC50 ([2]; Cricetulus griseus, CHO-K1): 10 to 100 nM
- IC50 [3]: ≤ 5 nM

SMILES: Cc1c(NC(=O)c2nc3c(n2C)CCN(CCC24CCC(C(=O)O)(CC2)C4)C3)cccc1-c1cccc(NC(=O)c2nc3c(n2C)CCN(CCC24CCC(C(=O)O)(CC2)C4)C3)c1Cl [Example 34, 4,4′-(((((2-chloro-2′-methyl-[1,1′-biphenyl]-3,3′-diyl)bis(azanediyl))bis(carbonyl))bis(1-methyl-1,4,6,7-tetrahydro-5H-imidazo[4,5-c]pyridine-2,5-diyl))bis(ethane-2,1-diyl))bis(bicyclo[2.2.1]heptane-1-carboxylic acid)]
- IC50 ([1]; Homo sapiens, U2OS): ≤ 10 nM
- IC50 (PD-L1): 10 to 100 nM
- EC50 ([2]; Cricetulus griseus, CHO-K1): 10 to 100 nM
- IC50 [3]: ≤ 5 nM

SMILES: Cn1c(C(=O)Nc2cccc(-c3cccc(NC(=O)c4nc5c(n4C)CCN(CC46CCC(C(=O)O)(CC4)C6)C5)c3Cl)c2Cl)nc2c1CCN(CCC13CCC(C(=O)O)(CC1)C3)C2 [Example 18, 4-((2-((3′-(5-(2-(4-carboxybicyclo[2.2.1]heptan-1-yl)ethyl)-1-methyl-4,5,6,7-tetrahydro-1H-imidazo[4,5-c]pyridine-2-carboxamido)-2,2′-dichloro-[1,1′-biphenyl]-3-yl)carbamoyl)-1-methyl-1,4,6,7-tetrahydro-5H-imidazo[4,5-c]pyridin-5-yl)methyl)bicyclo[2.2.1]heptane-1-carboxylic acid]
- IC50 ([1]; Homo sapiens, U2OS): ≤ 10 nM
- IC50 (PD-L1): 10 to 100 nM
- EC50 ([2]; Cricetulus griseus, CHO-K1): 10 to 100 nM
- IC50 [3]: ≤ 5 nM

SMILES: Cn1c(C(=O)Nc2cccc(-c3cccc(NC(=O)c4nc5c(n4C)CCN(CCC46CCC(C(=O)O)(CC4)C6)C5)c3Cl)c2Cl)nc2c1CCN(CCc1ccc(C(=O)O)cc1)C2 [Example 25, 4-(2-(2-((3′-(5-(4-carboxyphenethyl)-1-methyl-4,5,6,7-tetrahydro-1H-imidazo[4,5-c]pyridine-2-carboxamido)-2,2′-dichloro-[1,1′-biphenyl]-3-yl)carbamoyl)-1-methyl-1,4,6,7-tetrahydro-5H-imidazo[4,5-c]pyridin-5-yl)ethyl)bicyclo[2.2.1]heptane-1-carboxylic acid]
- IC50 ([1]; Homo sapiens, U2OS): 10 to 100 nM
- IC50 (PD-L1): 100 to 500 nM
- EC50 ([2]; Cricetulus griseus, CHO-K1): 10 to 100 nM
- IC50 [3]: ≤ 5 nM

SMILES: Cn1c(C(=O)Nc2cccc(-c3cccc(NC(=O)c4nc5c(n4C)CCN(CC[C@H]4CC[C@H](C(=O)O)CC4)C5)c3Cl)c2Cl)nc2c1CCN(CCC13CCC(C(=O)O)(CC1)C3)C2 [Example 62, 4-(2-(2-((3′-(5-(2-(trans-4-carboxycyclohexyl)ethyl)-1-methyl-4,5,6,7-tetrahydro-1H-imidazo[4,5-c]pyridine-2-carboxamido)-2,2′-dichloro-[1,1′-biphenyl]-3-yl)carbamoyl)-1-methyl-1,4,6,7-tetrahydro-5H-imidazo[4,5-c]pyridin-5-yl)ethyl)bicyclo[2.2.1]heptane-1-carboxylic acid]
- IC50 ([1]; Homo sapiens, U2OS): ≤ 10 nM
- IC50 (PD-L1): 10 to 100 nM
- EC50 ([2]; Cricetulus griseus, CHO-K1): 10 to 100 nM
- IC50 [3]: ≤ 5 nM

SMILES: Cc1c(NC(=O)c2nc3c(n2C)CCN(CCC24CCC(C(=O)O)(CC2)C4)C3)cccc1-c1cccc(NC(=O)c2nc3c(n2C)CCN(C[C@H](C)O)C3)c1C [Example 58, (S)-4-(2-(2-((3′-(5-(2-hydroxypropyl)-1-methyl-4,5,6,7-tetrahydro-1H-imidazo[4,5-c]pyridine-2-carboxamido)-2,2′-dimethyl-[1,1′-biphenyl]-3-yl)carbamoyl)-1-methyl-1,4,6,7-tetrahydro-5H-imidazo[4,5-c]pyridin-5-yl)ethyl)bicyclo[2.2.1]heptane-1-carboxylic acid]
- IC50 ([1]; Homo sapiens, U2OS): ≤ 10 nM
- IC50 (PD-L1): 100 to 500 nM
- EC50 ([2]; Cricetulus griseus, CHO-K1): 10 to 100 nM
- IC50 [3]: ≤ 5 nM

SMILES: Cn1c(C(=O)Nc2cccc(-c3cccc(NC(=O)c4nc5c(n4C)CCN(CC4(C(=O)O)CC4)C5)c3Cl)c2Cl)nc2c1CCN(CCC13CCC(C(=O)O)(CC1)C3)C2 [Example 22, 4-(2-(2-((3′-(5-((1-carboxycyclopropyl)methyl)-1-methyl-4,5,6,7-tetrahydro-1H-imidazo[4,5-c]pyridine-2-carboxamido)-2,2′-dichloro-[1,1′-biphenyl]-3-yl)carbamoyl)-1-methyl-1,4,6,7-tetrahydro-5H-imidazo[4,5-c]pyridin-5-yl)ethyl)bicyclo[2.2.1]heptane-1-carboxylic acid]
- IC50 ([1]; Homo sapiens, U2OS): ≤ 10 nM
- IC50 (PD-L1): 10 to 100 nM
- EC50 ([2]; Cricetulus griseus, CHO-K1): 10 to 100 nM
- IC50 [3]: ≤ 5 nM

SMILES: Cn1c(C(=O)Nc2cccc(-c3cccc(NC(=O)c4nc5c(n4C)CCN([C@H]4CC[C@](C)(C(=O)O)CC4)C5)c3Cl)c2Cl)nc2c1CCN(CCC13CCC(C(=O)O)(CC1)C3)C2 [Example 66, 4-(2-(2-((3′-(5-(trans-4-carboxy-4-methylcyclohexyl)-1-methyl-4,5,6,7-tetrahydro-1H-imidazo[4,5-c]pyridine-2-carboxamido)-2,2′-dichloro-[1,1′-biphenyl]-3-yl)carbamoyl)-1-methyl-1,4,6,7-tetrahydro-5H-imidazo[4,5-c]pyridin-5-yl)ethyl)bicyclo[2.2.1]heptane-1-carboxylic Acid]
- IC50 ([1]; Homo sapiens, U2OS): ≤ 10 nM
- IC50 (PD-L1): 10 to 100 nM
- EC50 ([2]; Cricetulus griseus, CHO-K1): ≤ 10 nM
- IC50 [3]: ≤ 5 nM

SMILES: Cc1c(NC(=O)c2nc3c(n2C)CCN(C2CCC(O)CC2)C3)cccc1-c1cccc(NC(=O)c2nc3c(n2C)CCN(CCC24CCC(C(=O)O)(CC2)C4)C3)c1Cl (single isomer, unassigned) [61 (compound 1), 4-(2-(2-((2-chloro-3′-(5-(4-hydroxycyclohexyl)-1-methyl-4,5,6,7-tetrahydro-1H-imidazo[4,5-c]pyridine-2-carboxamido)-2′-methyl-[1,1′-biphenyl]-3-yl)carbamoyl)-1-methyl-1,4,6,7-tetrahydro-5H-imidazo[4,5-c]pyridin-5-yl)ethyl)bicyclo[2.2.1]heptane-1-carboxylic acid]
- IC50 ([1]; Homo sapiens, U2OS): ≤ 10 nM
- IC50 (PD-L1): 10 to 100 nM
- EC50 ([2]; Cricetulus griseus, CHO-K1): 10 to 100 nM
- IC50 [3]: ≤ 5 nM

SMILES: Cn1c(C(=O)Nc2cccc(-c3cccc(NC(=O)c4nc5c(n4C)CCN(C4CCC(O)CC4)C5)c3Cl)c2Cl)nc2c1CCN(CCC13CCC(C(=O)O)(CC1)C3)C2 (single isomer, unassigned) [60 (compound 2), 4-(2-(2-((2,2′-dichloro-3′-(5-(4-hydroxycyclohexyl)-1-methyl-4,5,6,7-tetrahydro-1H-imidazo[4,5-c]pyridine-2-carboxamido)-[1,1′-biphenyl]-3-yl)carbamoyl)-1-methyl-1,4,6,7-tetrahydro-5H-imidazo[4,5-c]pyridin-5-yl)ethyl)bicyclo[2.2.1]heptane-1-carboxylic Acid]
- IC50 [1]: ≤ 10 nM
- IC50 (PD-L1): 10 to 100 nM
- EC50 [2]: ≤ 10 nM
- IC50 [3]: ≤ 5 nM

SMILES: Cc1c(NC(=O)c2nc3c(n2C)CCN(C2CCN(C(N)=O)CC2)C3)cccc1-c1cccc(NC(=O)c2nc3c(n2C)CCN(CCC24CCC(C(=O)O)(CC2)C4)C3)c1Cl [Example 30, 4-(2-(2-((3′-(5-(1-carbamoylpiperidin-4-yl)-1-methyl-4,5,6,7-tetrahydro-1H-imidazo[4,5-c]pyridine-2-carboxamido)-2-chloro-2′-methyl-[1,1′-biphenyl]-3-yl)carbamoyl)-1-methyl-1,4,6,7-tetrahydro-5H-imidazo[4,5-c]pyridin-5-yl)ethyl)bicyclo[2.2.1]heptane-1-carboxylic acid]
- IC50 ([1]; Homo sapiens, U2OS): ≤ 10 nM
- IC50 (PD-L1): 10 to 100 nM
- EC50 ([2]; Cricetulus griseus, CHO-K1): 10 to 100 nM
- IC50 [3]: ≤ 5 nM

Reference: patent publication US10618916B2, “Heterocyclic compounds as immunomodulators” (Incyte Corporation, priority 2018, dated 2020)
